Experiment: Nitric oxide-releasing ability (Griess reagent, with L-cysteine in phosphate buffer)
Conditions: for Nitric oxide-releasing rate: 0.1 mM furoxan compound, 5 mM L-cysteine, 50 mM phosphate buffer pH 7.4, 37° C., 1 hour, one molecule of furoxan taken to release one molecule of nitric oxide; for nitric oxide-releasing ability (in words): conclusion from Table 1; for 3 - X/4 - X (NO-releasing rate of 3-halofuroxan/NO-releasing rate of 4-halofuroxan): ratio of the rates of the 3-halo and 4-halo isomers, same conditions as the releasing rate
Protocol: The ability to release nitric oxide on each of (4-fluoro-3-(4-methylphenyl)furoxan, 3-fluoro-4-(4-methylphenyl)furoxan, 4-chloro-3-(4-methylphenyl)furoxan, and 3-chloro-4-(4-methylphenyl)furoxan was evaluated by the following method.
Each furoxan compound and L-cysteine were dissolved in 50 mM phosphate buffer (pH 7.4) to have a concentration of 0.1 mM and 5 mM, respectively, thereby to prepare a solution with a total volume of 6 mL. After stirring the solution at 37° C. for 1 hour, 3 mL of the solution was added to a light absorption cell and 250 μL of Griess reagent was added. After being left to stand at room temperature for 10 minutes, the absorbance was measured. The nitric oxide-releasing rate was obtained from a calibration curve prepared in advance using a sodium nitrite solution.

Row | SMILES | Nitric oxide-releasing rate | nitric oxide-releasing rate compared to that of the 3-chlorofuroxan compound (3-fluoro versus 3-chloro compound, same conditions) | nitric oxide-releasing ability (in words) | 3 - X/4 - X (NO-releasing rate of 3-halofuroxan/NO-releasing rate of 4-halofuroxan)
1 | Cc1ccc(-c2no[n+]([O-])c2Cl)cc1 [3-Chloro compound, 3-chloro-4-(4-methylphenyl)furoxan, reference compound] | 16.7% | – | – | –
2 | Cc1ccc(-c2no[n+]([O-])c2F)cc1 [3-Fluoro compound, 3-fluoro-4-(4-methylphenyl)furoxan] | 36.8% | twice or more | extremely high nitric oxide-releasing ability | –
3 | Cc1ccc(-c2c(Cl)no[n+]2[O-])cc1 [4-Chloro compound, 4-chloro-3-(4-methylphenyl)furoxan, reference compound] | 4.2% | – | – | 4.0 times
4 | Cc1ccc(-c2c(F)no[n+]2[O-])cc1 [4-Fluoro compound, 4-fluoro-3-(4-methylphenyl)furoxan] | 2.5% | – | almost no nitric oxide-releasing ability | 14.7 times
